Values joined by “and” are separate entries in the source; they are usually repeats but may differ in a detail not shown here. Equal entries are not always repeated.
Columns and labels:
[1] = test system: OVCAR8 ovarian cancer cells; test: MTT cytotoxicity assay in OVCAR8 (cisplatin resistant) ovarian cancer cells; format: cell-based, human; details: 48 h incubation
Outline: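 Cells in RPMI-1640 with 10% FBS exposed to complexes at 0.01–100 μM for 24 and/or 48 h at 37 °C. Viability by colorimetric MTT; IC50 derived from dose–response curves.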

P. berghei hepatic stage = test: In vitro activity against the hepatic stage of P. berghei infection (luciferase, Huh7 cells); format: cell-based, Plasmodium berghei; details: hepatic stage, Huh7 cells, 46 hpi
Experimental: The in vitro liver stage activity of gold complexes was assessed against P. berghei-infected Huh7 cells, as previously described. Briefly, Huh7 cells were cultured in RPMI-1640 medium supplemented with 10% (v/v) fetal bovine serum, 1% (v/v) penicillin/streptomycin, 1% (v/v) glutamine, 1% (v/v) non-essential amino acids and 10 mM HEPES. On the day prior to infection, Huh7 cells were seeded in 96-well plates at a density of approximately 3.1 × 10^4 cell/cm^2 and incubated at 37 °C, 5% CO2. Stock solutions of the complexes were initially prepared in DMSO and serially diluted in infection medium, i.e., culture medium supplemented with gentamicin (50 µg/mL) and fungizone (0.8 µg/mL), to obtain the test concentrations. As a control, DMSO was diluted in infection medium to a percentage that equals that of the highest compound concentrations tested. These dilutions were added to the cells in triplicates and incubated for 1 h at 37 °C, 5% CO2, after which 1 × 10^4 luciferase-expressing P. berghei sporozoites were added to each well. Plates were centrifuged at 1800× g for 5 min at room temperature and incubated for the duration of the assay. At 46 h post-infection (hpi), the impact of each compound concentration on cell viability was assessed by the Alamar Blue (Invitrogen, Buckinghamshire, UK) assay, according to the manufacturer’s recommendations. Infection was next assessed by bioluminescence, employing the Firefly Luciferase Assay Kit 2.0 (Biotium, Fremont, CA, USA), according to the manufacturer’s recommendations. For IC50 determination, nonlinear regression analysis was employed to fit the normalized results of the dose–response curves, using GraphPad Prism 8 (GraphPad software, La Jolla, CA, USA).

S. aureus Newman = test: MIC determination, S. aureus; format: cell-based, Staphylococcus aureus; details: MH broth, 22 h, 37 °C
Text: (§1) The bacterial strains Escherichia coli ATCC25922 and Staphylococcus aureus Newman were used in this work and maintained in Lennox Broth (LB) solid medium, composed of 10 g/L tryptone, 5 g/L yeast extract, 5 g/L NaCl and 20 g/L agar. The fungal strains Candida albicans SC5134 and C. glabrata CBS138 were used in this work and maintained in YPD solid medium, composed of 20 g/L glucose, 20 g/L peptone, 10 g/L yeast extract and 15 g/L agar. The strains were isolated from human infections.
(§2) The antimicrobial activity of the complexes towards the bacterial and fungal strains was assessed by the determination of the Minimal Inhibitory Concentration (MIC) of each complex towards the indicated microbial strains, based on standard methods, and as previously described. […] Serial 1:2 dilutions of stock solutions were prepared for each complex in Mueller–Hinton (MH) broth (Fluka Analytical) or RPMI-1640 medium (Sigma) supplemented with 20 g/L glucose and buffered with 0.165 M morpholinepropanesulphonic acid (RPMIG) to pH 7.0. Solutions prepared with MH were used for testing bacteria, while those prepared with RPMIG were used for testing fungi. For antibacterial activity assays, the final concentrations ranged from 250 to 0.24 μg/mL (when stock solution final concentration was 10 mg/mL), 125 μg/mL to 0.12 μg/mL (when stock solution final concentration was 5 mg/mL) and 62.5 to 0.06 μg/mL (when stock solution final concentration was 2.5 mg/mL). For antifungal assays, the final concentrations ranged from 125 μg/mL to 0.12 μg/mL (when stock solution final concentration was 10 mg/mL), 62.5 to 0.06 μg/mL (when stock solution final concentration was 5 mg/mL) and 31.25 to 0.03 μg/mL (when stock solution final concentration was 2.5 mg/mL). Then, 100 μL aliquots of adequately diluted bacterial suspensions of S. aureus Newman or E. coli ATCC 25922 were mixed with the MH serially diluted complexes aliquots to obtain 5 × 10^5 CFU/mL. In the case of fungi, cultures were diluted to obtain a final optical density of 0.025, measured at 530 nm (OD530). Bacterial suspensions were prepared from cultures grown for 5 h in MH broth at 37 °C and 250 rev·min^−1 and adequately diluted with fresh MH medium, while fungal suspensions were prepared from overnight cultures grown in YPD broth at 30 °C and 250 rev.min^−1 and diluted in buffered RPMIG. After 22 h of incubation at 37 °C (bacteria) or 24 h at 35 °C (fungi), the wells’ content was resuspended by pipetting and the OD640 (bacteria) or OD530 (fungi) were measured in a SPECTROstar Nano microplate reader (BMG Labtech).
(§3) At least three independent experiments were performed in duplicate for each complex under study. […] Positive (no complex) and negative controls (no inoculum) were performed for each experiment. The effect of 5% (V/V) DMSO on microbial growth was also assessed.

C. glabrata CBS138 = test: MIC determination, C. glabrata; format: cell-based, Candida glabrata; details: RPMIG, 24 h, 35 °C
Text: as §1, §2, §3

HIV-1 SG3.1 = test: Single-round viral infectivity assay in TZM-bl reporter cells; format: cell-based; details: SG3.1 isolate, 48 h, in words
Experimental: The HIV-1 SG3.1 subtype B strain was obtained by transfection of HEK293T cells with pSG3.1 plasmid using jetPrime transfection reagent (Polyplus-tranfection SA, Illkirch, France) according to the manufacturer’s instructions. The 50% tissue culture infectious dose (TCID50) of the virus was determined in a single-round viral infectivity assay using a luciferase reporter gene assay in TZM-bl cells and calculated using the statistical method of Reed and Muench.
The antiviral activity of Auranofin, [P][AuSEt(=S)] and [P][AuSBu(=S)] compounds was determined in a single-round viral infectivity assay using TZM-bl reporter cells, as previously described. Briefly, TZM-bl cells were infected with 200 TCID50 of SG3.1 in the presence of serial-fold dilutions of the compounds in growth medium, supplemented with DEAE-dextran. After 48 h of infection, luciferase expression was quantified with Pierce Firefly Luc One-Step Glow Assay Kit (ThermoFisher Scientific, Rockford, IL, USA) according to the manufacturer’s instructions.
At least two independent experiments were performed for each antiviral activity analysis. The assay was set up in triplicate wells. Virus controls and cell controls were used.

| Structure (SMILES) | IC50 [1] [nM] | IC50 (P. berghei hepatic stage) [nM] | MIC S. aureus Newman (S. aureus Newman) | MIC C. glabrata CBS138 (C. glabrata CBS138) [µg/mL] | anti-HIV-1 activity (HIV-1 SG3.1) |
| --- | --- | --- | --- | --- | --- |
| CC(C)n1c2c(sc1=S)[Se][Au-]1([Se]c3sc(=S)n(C(C)C)c3[Se]1)[Se]2.c1ccc([P+](c2ccccc2)(c2ccccc2)c2ccccc2)cc1 [[P][AuSeiPr(=S)]] | 3860 ± 910 | 748 ± 70.2 | >62.5 µg/mL | >31.25 | – |
| CCn1c2c(sc1=S)[S][Au-]1([S]c3sc(=S)n(CC)c3[S]1)[S]2.c1ccc([P+](c2ccccc2)(c2ccccc2)c2ccccc2)cc1 [[P][AuSEt(=S)]] | 850 ± 190 | 474 ± 110 | >125 µg/mL | >62.5 | none of the compounds presented anti-HIV-1 activity |
| CC(=O)OC[C@H]1O[C@@H]([S-])[C@H](OC(C)=O)[C@@H](OC(C)=O)[C@@H]1OC(C)=O.CCP(CC)CC.[Au+] [Auranofin, reference compound] | 1040 ± 410 | – | 0.2 µg/mL and 0.173 ± 0.004 µg/mL | 15.2 ± 0.6 | none of the compounds presented anti-HIV-1 activity |
| CCn1c2c(sc1=[Se])[S][Au-]1([S]c3sc(=[Se])n(CC)c3[S]1)[S]2.c1ccc([P+](c2ccccc2)(c2ccccc2)c2ccccc2)cc1 [[P][AuSEt(=Se)]] | 970 ± 180 | 416 ± 123 | >125 µg/mL | >62.5 | – |
| CCCCn1c2c(sc1=S)[S][Au-]1([S]c3sc(=S)n(CCCC)c3[S]1)[S]2.c1ccc([P+](c2ccccc2)(c2ccccc2)c2ccccc2)cc1 [[P][AuSBu(=S)]] | 1410 ± 560 | 470 ± 115 | >125 µg/mL | >62.5 | none of the compounds presented anti-HIV-1 activity |

From article PMC9266914, “Broad Spectrum Functional Activity of Structurally Related Monoanionic Au(III) Bis(Dithiolene) Complexes” (International Journal of Molecular Sciences, 2022)
